Laboratory results: PMC5580309, “Molecular-scale features that govern the effects of O-glycosylation on a carbohydrate-binding module” (Chemical Science, 2015)
Bridge positions count the residues as written; N and C are the ends. Peptide text beside a SMILES is read from it. * marks the point of attachment. X8 = O=P(O)(O)OC[C@H]1O[C@H](O[C@H]2[C@@H](O)[C@H](O)[C@@H](CO)O[C@@H]2*)[C@@H](O)[C@@H](O)[C@@H]1O; X2 = OC[C@H]1O[C@H](O[C@H]2[C@@H](O)[C@H](O)[C@@H](CO)O[C@@H]2*)[C@@H](O)[C@@H](O)[C@@H]1O; X4 = OC[C@H]1O[C@H](OC[C@H]2O[C@H](*)[C@@H](O)[C@@H](O)[C@@H]2O)[C@H](O)[C@@H](O)[C@@H]1O

Molecular target: T1, thermolysin (Bacillus thermoproteolyticus, UniProt P00800)
T1 sequence (P00800 233-548): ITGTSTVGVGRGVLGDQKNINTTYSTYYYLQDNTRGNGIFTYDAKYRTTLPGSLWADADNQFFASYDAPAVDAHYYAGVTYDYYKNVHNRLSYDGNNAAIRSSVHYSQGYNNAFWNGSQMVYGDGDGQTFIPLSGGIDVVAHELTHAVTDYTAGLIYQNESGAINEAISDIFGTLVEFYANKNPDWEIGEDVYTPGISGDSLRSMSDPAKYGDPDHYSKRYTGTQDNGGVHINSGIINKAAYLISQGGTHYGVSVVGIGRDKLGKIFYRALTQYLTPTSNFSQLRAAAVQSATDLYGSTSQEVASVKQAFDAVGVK
Assay: Proteolytic stability: half-life to thermolysin degradation
Format: in vitro ADME
Details: for Change in Half-Life to Thermolysin Degradation: glyco-variant minus its corresponding unglycosylated CBM (e.g. 2-1), *** not used in the correlation plot; for half-life: thermolysin (isolated protease), thermolysin degradation, mean of three trials ± SD, procedures as described previously (ESI ref 18)
Method: All error bars reported are standard deviations of data achieved from three separate trials.
cellulose that were determined in accordance with our procedures as described previously 18.
The results are presented as mean of three trials ± SD. *Denotes an averaged value of four trials

Compound: CC[C@H](C)[C@@H]1NC(=O)CNC(=O)CNC(=O)[C@@H](NC(=O)[C@H](CCC(N)=O)NC(=O)CNC(=O)[C@H](Cc2ccc(O)cc2)NC(=O)[C@H](Cc2c[nH]cn2)NC(=O)[C@H](CO[C@H]2O[C@H](CO[C@H]3O[C@H](CO)[C@@H](O)[C@H](O)[C@H]3O)[C@@H](O)[C@H](O)[C@@H]2O)NC(=O)[C@H](CCC(N)=O)NC(=O)[C@@H](N)[C@@H](C)O)CSSC[C@@H]2NC(=O)[C@H]([C@@H](C)O)NC(=O)[C@H]([C@@H](C)O)NC(=O)CNC(=O)[C@H](CO)NC(=O)[C@H](C)NC(=O)[C@H](CSSC[C@@H](C(=O)N[C@@H](CC(C)C)C(=O)O)NC(=O)[C@H](CCC(N)=O)NC(=O)[C@H](CO)NC(=O)[C@H](Cc3ccc(O)cc3)NC(=O)[C@H](Cc3ccc(O)cc3)NC(=O)[C@@H]3CCCN3C(=O)[C@H](CC(N)=O)NC(=O)[C@H](CC(C)C)NC(=O)[C@H](C(C)C)NC(=O)[C@H](CCC(N)=O)NC2=O)NC(=O)[C@H](C(C)C)NC(=O)[C@H]([C@@H](C)O)NC(=O)[C@@H]2CCCN2C(=O)CNC(=O)[C@H](CO)NC(=O)[C@H](Cc2ccc(O)cc2)NC(=O)CNC1=O [CBM variant 30] (H-TQS(X4)HYGQCGGIGYSGPTVCASGTTCQVLNPYYSQCL-OH; disulfide 8-25, 19-35)
- Change in Half-Life to Thermolysin Degradation: 33 min
- half-life: 46.8 ± 6.6 min

Compound: CC[C@H](C)[C@@H]1NC(=O)CNC(=O)CNC(=O)[C@@H](NC(=O)[C@H](CCC(N)=O)NC(=O)CNC(=O)[C@H](Cc2ccc(O)cc2)NC(=O)[C@H](Cc2c[nH]cn2)NC(=O)[C@H](CO[C@H]2O[C@H](CO)[C@@H](O)[C@H](O)[C@@H]2O[C@H]2O[C@H](COP(=O)(O)O)[C@@H](O)[C@H](O)[C@@H]2O)NC(=O)[C@H](CCC(N)=O)NC(=O)[C@@H](N)[C@@H](C)O)CSSC[C@@H]2NC(=O)[C@H]([C@@H](C)O)NC(=O)[C@H]([C@@H](C)O)NC(=O)CNC(=O)[C@H](CO)NC(=O)[C@H](C)NC(=O)[C@H](CSSC[C@@H](C(=O)N[C@@H](CC(C)C)C(=O)O)NC(=O)[C@H](CCC(N)=O)NC(=O)[C@H](CO)NC(=O)[C@H](Cc3ccc(O)cc3)NC(=O)[C@H](Cc3ccc(O)cc3)NC(=O)[C@@H]3CCCN3C(=O)[C@H](CC(N)=O)NC(=O)[C@H](CC(C)C)NC(=O)[C@H](C(C)C)NC(=O)[C@H](CCC(N)=O)NC2=O)NC(=O)[C@H](C(C)C)NC(=O)[C@H]([C@@H](C)O)NC(=O)[C@@H]2CCCN2C(=O)CNC(=O)[C@H](CO)NC(=O)[C@H](Cc2ccc(O)cc2)NC(=O)CNC1=O [CBM variant 31] (H-TQS(X8)HYGQCGGIGYSGPTVCASGTTCQVLNPYYSQCL-OH; disulfide 8-25, 19-35)
- Change in Half-Life to Thermolysin Degradation: 12 min
- half-life: 25.8 ± 3 min

Compound: CC[C@H](C)[C@@H]1NC(=O)CNC(=O)CNC(=O)[C@@H](NC(=O)[C@H](CCC(N)=O)NC(=O)CNC(=O)[C@H](C)NC(=O)[C@H](Cc2c[nH]cn2)NC(=O)[C@H](CO[C@H]2O[C@H](CO)[C@@H](O)[C@H](O)[C@@H]2O[C@H]2O[C@H](CO)[C@@H](O)[C@H](O)[C@@H]2O)NC(=O)[C@H](CCC(N)=O)NC(=O)[C@@H](N)[C@@H](C)O)CSSC[C@@H]2NC(=O)[C@H]([C@@H](C)O)NC(=O)[C@H]([C@@H](C)O)NC(=O)CNC(=O)[C@H](CO)NC(=O)[C@H](C)NC(=O)[C@H](CSSC[C@@H](C(=O)N[C@@H](CC(C)C)C(=O)O)NC(=O)[C@H](CCC(N)=O)NC(=O)[C@H](CO)NC(=O)[C@H](Cc3ccc(O)cc3)NC(=O)[C@H](Cc3ccc(O)cc3)NC(=O)[C@@H]3CCCN3C(=O)[C@H](CC(N)=O)NC(=O)[C@H](CC(C)C)NC(=O)[C@H](C(C)C)NC(=O)[C@H](CCC(N)=O)NC2=O)NC(=O)[C@H](C(C)C)NC(=O)[C@H]([C@@H](C)O)NC(=O)[C@@H]2CCCN2C(=O)CNC(=O)[C@H](CO)NC(=O)[C@H](Cc2ccc(O)cc2)NC(=O)CNC1=O [CBM variant 32] (H-TQS(X2)HAGQCGGIGYSGPTVCASGTTCQVLNPYYSQCL-OH; disulfide 8-25, 19-35)
- Change in Half-Life to Thermolysin Degradation: 1.2 min
- half-life: 6 ± 1.2 min

Compound: CC[C@H](C)[C@@H]1NC(=O)CNC(=O)CNC(=O)[C@@H](NC(=O)[C@H](CCC(N)=O)NC(=O)CNC(=O)[C@H](Cc2ccc(O)cc2)NC(=O)[C@H](Cc2c[nH]cn2)NC(=O)[C@@H](NC(=O)[C@H](CCC(N)=O)NC(=O)[C@@H](N)[C@@H](C)O)[C@@H](C)O[C@H]2O[C@H](CO)[C@@H](O)[C@H](O)[C@@H]2O[C@H]2O[C@H](CO)[C@@H](O)[C@H](O)[C@@H]2O)CSSC[C@@H]2NC(=O)[C@H]([C@@H](C)O)NC(=O)[C@H]([C@@H](C)O)NC(=O)CNC(=O)[C@H](CO)NC(=O)[C@H](C)NC(=O)[C@H](CSSC[C@@H](C(=O)N[C@@H](CC(C)C)C(=O)O)NC(=O)[C@H](CCC(N)=O)NC(=O)[C@H](CO)NC(=O)[C@H](Cc3ccc(O)cc3)NC(=O)[C@H](Cc3ccc(O)cc3)NC(=O)[C@@H]3CCCN3C(=O)[C@H](CC(N)=O)NC(=O)[C@H](CC(C)C)NC(=O)[C@H](C(C)C)NC(=O)[C@H](CCC(N)=O)NC2=O)NC(=O)[C@H](C(C)C)NC(=O)[C@H]([C@@H](C)O)NC(=O)[C@@H]2CCCN2C(=O)CNC(=O)[C@H](CO)NC(=O)[C@H](Cc2ccc(O)cc2)NC(=O)CNC1=O [CBM variant 33] (H-TQT(X2)HYGQCGGIGYSGPTVCASGTTCQVLNPYYSQCL-OH; disulfide 8-25, 19-35)
- Change in Half-Life to Thermolysin Degradation: 72 min
- half-life: 93.6 ± 24 min

Compound: CC[C@H](C)[C@@H]1NC(=O)CNC(=O)CNC(=O)[C@@H](NC(=O)[C@H](CCC(N)=O)NC(=O)CNC(=O)[C@H](Cc2ccc(O)cc2)NC(=O)[C@H](Cc2c[nH]cn2)NC(=O)[C@H](CS[C@H]2O[C@H](CO)[C@@H](O)[C@H](O)[C@@H]2O[C@H]2O[C@H](CO)[C@@H](O)[C@H](O)[C@@H]2O)NC(=O)[C@H](CCC(N)=O)NC(=O)[C@@H](N)[C@@H](C)O)CSSC[C@@H]2NC(=O)[C@H]([C@@H](C)O)NC(=O)[C@H]([C@@H](C)O)NC(=O)CNC(=O)[C@H](CO)NC(=O)[C@H](C)NC(=O)[C@H](CSSC[C@@H](C(=O)N[C@@H](CC(C)C)C(=O)O)NC(=O)[C@H](CCC(N)=O)NC(=O)[C@H](CO)NC(=O)[C@H](Cc3ccc(O)cc3)NC(=O)[C@H](Cc3ccc(O)cc3)NC(=O)[C@@H]3CCCN3C(=O)[C@H](CC(N)=O)NC(=O)[C@H](CC(C)C)NC(=O)[C@H](C(C)C)NC(=O)[C@H](CCC(N)=O)NC2=O)NC(=O)[C@H](C(C)C)NC(=O)[C@H]([C@@H](C)O)NC(=O)[C@@H]2CCCN2C(=O)CNC(=O)[C@H](CO)NC(=O)[C@H](Cc2ccc(O)cc2)NC(=O)CNC1=O [CBM variant 34] (H-TQC(X2)HYGQCGGIGYSGPTVCASGTTCQVLNPYYSQCL-OH; disulfide 8-25, 19-35)
- half-life: 10.8 ± 1.2 min
